Earlier results, collected in paper PMC2711878 (ACS chemical biology, 2009).

How the values were obtained:
[1] = biological target: monofunctional P. falciparum WT DHFR
[2] = biological target: P. falciparum double mutant C59R/S108N DHFR
[3] = biological target: P. falciparum N51I/C59R/S108N/I164L DHFR
[4] = in vivo

Row | SMILES | Ki ([1]; read-out: Ki, WT DHFR, monofunctional enzyme) [nM] | Ki, fold less inhibitory than WT, double mutant ([2]; C59R/S108N, monofunctional enzyme) [fold] | Ki, fold less inhibitory than WT, quadruple mutant ([3]; N51I/C59R/S108N/I164L, monofunctional enzyme) [fold] | Ki value, WT DHFR [1] | Ki value, double mutant DHFR [2] | Ki value, quadruple mutant DHFR [3] | oral bioavailability [4]
1 | CCc1nc(N)nc(N)c1-c1ccc(Cl)cc1 [pyrimethamine] | 1.5 | 50 | > 500 | – | – | – | –
2 | CC1(C)N=C(N)N=C(N)N1OCCCOc1cc(Cl)c(Cl)cc1Cl [WR99210] | – | – | – | sub-nanomolar | sub-nanomolar | sub-nanomolar | poor
